# Measurements taken from patent US20220233624A9, “ANTI-CANCER AND ANTI-PROLIFERATIVE COMPOSITIONS, AND METHODS FOR THEIR USE IN TREATING CANCER” (Natreon, Inc., priority 2020, published 2022).
# Several values for one entry are separate records, joined by “and”; a condition that tells them apart may be missing. Equal entries are not always repeated. Where two headings read alike, the source gives them in different places. Marks after values point to notes of the source that are not given here.
# Key:
# [1] = system: Breast Cancer PDCs, Triple negative (TN), SB 36344; assay: Anti-proliferation assay on breast cancer TN PDCs; format: cell-based, human; conditions: drug alone @ 3 uM; for inhibition at 3 µM: Homo sapiens; for % Inhibition, single replicates: 3 µM
# Procedure: (§1) The outermost rows/columns of the plates were filled with PBS (pH 7.4) to avoid an edge-effect and were considered as blanks. Standardized aqueous extracts identified in Table 2 were prepared in main stock solutions by dissolving 1 mg of extract in 1 ml PBS (phosphate-buffered saline, pH 7.4). […] The plate was incubated in a CO2 incubator for 0/N incubation for 24 hours. […] Once extracts were added to incubated cells and mixed gently, the plate was given a brief spin and incubated in the CO2 incubator for 72 hours. The plate was removed from the incubator and 10 ul of detection reagent (CellTiterGlo®; Promega Corporation, Wisconsin, USA) added to each well of the 384 well plate. […] The assay described above is a two-dimensional (2D) assay.
# [2] = system: TN breast cancer PDCs SB 30750; assay: Anti-proliferation assay on TN breast cancer PDCs SB 30750; format: cell-based; conditions: Homo sapiens, 3 uM, 72 h
# Procedure: In this Example, AyuFlex®, Capros®, and Ayuric® were each applied to different PDCs than previous tests, TN breast cancer PDCs SB 30750, and tested via the anti-proliferation assay described above. […] Incubation times were 72 hours.
# [3] = system: colon cancer cells (cell line HT-29); assay: Anti-proliferation assay on colon cancer cells; format: cell-based; conditions: Homo sapiens
# Procedure: (§2) Anti-proliferative and anti-cancer activity of extracts of this invention on non-small cell lung cancer cells and colon cancer cells were assessed generally as described in Example I and are discussed below. […] As noted throughout this application, the below data is intended to describe the present invention but not to be limiting.
# (§3) Non-small cell lung cancer cells (cell line NCI-H-358) and colon cancer cells (cell line HT-29) were plated in a 384-well plate in amounts of about 1.25 k cells/well. […] Wells with untreated cells and with plain media were also included as controls. Plates passed quality control parameters.
# [4] = system: Breast Cancer PDCs, ER/PR− Her2+ (Her2+); assay: Anti-proliferation assay on breast cancer Her2+ PDCs; format: cell-based, human; conditions: drug alone @ 3 uM; for inhibition at 3 µM: Homo sapiens; for % Inhibition, single replicates: 3 µM
# Procedure: as §1
# [5] = system: TN Breast Cancer cell line MDAMB-231; assay: Anti-proliferation assay on MDAMB-231 cells (72 h and 120 h); format: cell-based; conditions: Homo sapiens, MDA-MB-231, 3 uM
# Procedure: Also, AyuFlex®, Capros®, and Ayuric® were tested in the anti-proliferative assay discussed above in the TN Breast Cancer cell line MDAMB-231. AyuFlex®, Capros®, and Ayuric® were incubated for 72 hours and 120 hours. The dose-response efficacy of AyuFlex®, Capros®, and Ayuric® after a 72-hour period of incubation was similar to that observed after a 120-hour period of incubation with the MDAMB-231 cells. Without being bound by theory, possibly this was due to saturation of cell growth at the 120-hour time-point.
# [6] = system: colon cancer cells (cell line HT-29); conditions: J. Surg. Res. 111(1):63-69 (2003); read-out: IC50 (published); cited from earlier work
# [7] = system: Breast Cancer PDCs, ER/PR+ Her2 equivocal (HR+); assay: Anti-proliferation assay on breast cancer HR+ PDCs; format: cell-based, human; conditions: drug alone @ 3 uM; for inhibition at 3 µM: Homo sapiens; for % Inhibition, single replicates: 3 µM
# Procedure: as §1
# [8] = system: SHP-77 (small cell lung cancer) cells; assay: Anti-proliferation assay on small cell lung cancer cells; format: cell-based; conditions: Homo sapiens, SHP77
# Procedure: SHP-77 (small cell lung cancer) cells were incubated for 72 hours with 100 ug/ml, 30 ug/ml, and 10 ug/ml each of AyuFlex®, Capros® Phyto-BGS®, PrimaVie®, Sensoril®, Ayuric®, and Crominex®, and tested according to the anti-proliferative assay described above. Cells were plated at 1.25 k/well in 384 well plates. Standard of care drug docetaxel was also tested at a 10 uM concentration as a control. Anti-proliferative assays were generally performed as discussed above, in triplicate, with detection reagent CellTiterGlo® as discussed for instance in Example I. Tables 77-79 show data for controls and that the data passed quality control parameters.
# [9] = system: Ovarian cancer (OVCAR-3) cells; assay: Anti-proliferation assay on ovarian cancer cells; format: cell-based; conditions: Homo sapiens
# Procedure: (§4) Cells were plated at 1.25 k/well in 384 well plates. […] Anti-proliferative assays were generally performed as discussed in Example I above, in triplicate, with detection reagent CellTiterGlo. Tables 80-82 show data for controls for assays on prostate cancer (PC-3 cells), and that the data passed quality control parameters. Tables 83-85 show data for controls for assays on ovarian cancer (OVCAR-3 cells), and that the data passed quality control parameters.
# [10] = system: Non-small cell lung cancer cells (cell line NCI-H-358); assay: Anti-proliferation assay on non-small cell lung cancer cells; format: cell-based; conditions: Homo sapiens, NCI-H358
# Procedure: as §2, §3
# [11] = system: Non-small cell lung cancer cells (cell line NCI-H-358); conditions: Intl. J. Oncol. 31:241-252 (2007); read-out: IC50 (published); cited from earlier work
# [12] = system: Prostate cancer (PC-3) cells; assay: Anti-proliferation assay on prostate cancer cells; format: cell-based; conditions: Homo sapiens
# Procedure: as §4
# [13] = read-out: % Inhibition, single replicates
# [14] = drug 10 uM, read-out: inhibition of proliferation
# [15] = plate control @ 10 uM, read-out: % Inhibition Average (SD)
# [16] = plate control @ 10 uM, read-out: % Inhibition n1
# [17] = plate control @ 10 uM, read-out: % Inhibition n2
# [18] = plate control @ 10 uM, read-out: % Inhibition n3
# [19] = 72 hour incubation, read-out: % Inhibition Avg
# [20] = 72 hour incubation, read-out: % Inhibition n1
# [21] = 72 hour incubation, read-out: % Inhibition n2
# [22] = 72 hour incubation, read-out: % Inhibition n3
# [23] = 120 hour incubation, read-out: % Inhibition Avg
# [24] = 120 hour incubation, read-out: % Inhibition n1
# [25] = 120 hour incubation, read-out: % Inhibition n2
# [26] = 120 hour incubation, read-out: % Inhibition n3
# [27] = 10 uM, 72 h, read-out: % Inhibition Average (SD)
# [28] = 10 uM, 72 h, read-out: % Inhibition n1
# [29] = 10 uM, 72 h, read-out: % Inhibition n2
# [30] = 10 uM, 72 h, read-out: % Inhibition n3
# [31] = drug 10 uM, read-out: inhibition
smiles,measurement,setting,value
"O=c1[nH]cc(F)c(=O)[nH]1 [5-FU, 5-fluorouracil]",inhibition at 3 µM,[1]; read-out: % Inhibition Avg,38%
same,inhibition at 3 µM,[1]; [13],48%
same,"% Inhibition, single replicates",[1],33%
same,inhibition at 3 µM,[2]; read-out: % Inhibition Avg,24%
same,inhibition at 3 µM,[2]; read-out: % Inhibition n1,44%
same,inhibition at 3 µM,[2]; read-out: % Inhibition n2,14%
same,inhibition at 3 µM,[2]; read-out: % Inhibition n3,14%
same,inhibition at 10 µM,[3]; [14],12%
same,inhibition at 10 µM,[3]; [15],12%
same,inhibition at 10 µM,[3]; [16],20%
same,inhibition at 10 µM,[3]; [17],7%
same,inhibition at 10 µM,[3]; [18],10%
same,inhibition at 3 µM,[4],18%
same,"% Inhibition, single replicates",[4],41* % and 16% and 19%
same,inhibition at 3 µM,[5]; [19],4%
same,inhibition at 3 µM,[5]; [20],21%
same,inhibition at 3 µM,[5]; [21],-5%
same,inhibition at 3 µM,[5]; [22],-4%
same,inhibition at 3 µM,[5]; [23],-8%
same,inhibition at 3 µM,[5]; [24],20%
same,inhibition at 3 µM,[5]; [25],-10%
same,inhibition at 3 µM,[5]; [26],-5%
same,IC50,[6],13 µM
same,inhibition at 3 µM,[7]; read-out: % Inhibition Avg,~28%
same,% Inhibition Avg,[7],29%
same,"% Inhibition, single replicates",[7],42% and 20% and 23%
"CC(=O)O[C@@]12CO[C@@H]1C[C@H](O)[C@@]1(C)C(=O)[C@H](O)C3=C(C)[C@@H](OC(=O)[C@H](O)[C@@H](NC(=O)OC(C)(C)C)c4ccccc4)C[C@@](O)([C@@H](OC(=O)c4ccccc4)[C@H]21)C3(C)C [Docetaxel, docetaxel]",inhibition at 3 µM,[1]; read-out: % Inhibition Avg,~48%
same,inhibition at 3 µM,[1]; [13],56%
same,"% Inhibition, single replicates",[1],44% and 43%
same,inhibition at 3 µM,[2]; read-out: % Inhibition Avg,56%
same,inhibition at 3 µM,[2]; read-out: % Inhibition n1,68%
same,inhibition at 3 µM,[2]; read-out: % Inhibition n2,52%
same,inhibition at 3 µM,[2]; read-out: % Inhibition n3,47%
same,inhibition at 10 µM,[8]; [27],90%
same,inhibition at 10 µM,[8]; [28],90%
same,inhibition at 10 µM,[8]; [29],91%
same,inhibition at 10 µM,[8]; [30],89%
same,inhibition at 10 µM,[8]; [31],90%
same,inhibition at 3 µM,[4],~50%
same,"% Inhibition, single replicates",[4],30* % and 43% and 57%
same,inhibition at 3 µM,[5]; [19],56%
same,inhibition at 3 µM,[5]; [20],67%
same,inhibition at 3 µM,[5]; [21],50%
same,inhibition at 3 µM,[5]; [22],52%
same,inhibition at 3 µM,[5]; [23],75%
same,inhibition at 3 µM,[5]; [24],78%
same,inhibition at 3 µM,[5]; [25],71%
same,inhibition at 3 µM,[5]; [26],76%
same,inhibition at 10 µM,[9]; [27],66%
same,inhibition at 10 µM,[9]; [28],65%
same,inhibition at 10 µM,[9]; [29],68%
same,inhibition at 10 µM,[9]; [30],65%
same,inhibition at 10 µM,[9]; [31],66%
same,inhibition at 10 µM,[10]; [14],58%
same,inhibition at 10 µM,[10]; [15],58%
same,inhibition at 10 µM,[10]; [16],63%
same,inhibition at 10 µM,[10]; [17],55%
same,inhibition at 10 µM,[10]; [18],58%
same,IC50,[11],0.367 µM
same,inhibition at 10 µM,[12]; [27],58%
same,inhibition at 10 µM,[12]; [28],53%
same,inhibition at 10 µM,[12]; [29],67%
same,inhibition at 10 µM,[12]; [30],56%
same,inhibition at 10 µM,[12]; [31],58%
same,inhibition at 3 µM,[7]; read-out: % Inhibition Avg,~59%
same,inhibition at 3 µM,[7]; [13],67%
same,"% Inhibition, single replicates",[7],53% and 58%
